The test system of one data set is IL-1β. The data set is described as follows: Ex vivo LPS-stimulated human whole blood, IL-1β production. The format is cell-based. Conditions: one donor. The procedure:
(§1) Venous blood from human donors was collected as 10 ml aliquots in tubes containing sodium heparin (BD Vacutainer from Becton Dickinson and Company, Franklin Lakes, NY). Blood was added to sterile polystyrene round bottom 96-well tissue culture plates (Corning Costar) at 100 µl/well, omitting the outside wells. Media (RPMI Medium 1640 with L-glutamine, Invitrogen Corporation, Carlsbad, CA) was added to the blood in 90 µl aliquots for a total volume of 190 µl. Outside wells were filled with 200 µl of media. Blood was placed in a humidified 37°C incubator with 5% CO2 while compounds were prepared (nearly 60 minutes).
(§2) Compounds were prepared from 10 mM stock solutions in dimethylsulfoxide (DMSO, Sigma-Aldrich). […] Final DMSO and ethanol concentrations in the assay were 0.1 % and 1.5%. The samples were gently triturated twice to mix and replaced in the incubator. LPS stock (E. coli serotype 0111:B4, Sigma-Aldrich), stored in aliquots of 100 µg/ml in RPMI at -20°C, was diluted 1/50 in RPMI to make a working stock solution. After 60 minutes of incubation, 10 µl of the prepared LPS working stock was added to the blood to a final concentration of 100 ng/ml, omitting wells to be used as negative control. The samples were again gently triturated and the plates incubated overnight for 22 hours. Following incubation, the blood was centrifuged at 1500 x g for 5 minutes and the plasma removed to either freeze at -20°C or assay for cytokine release.
(§3) IL-1β, IFNγ,IL-6, and TNFα protein levels were measured using Meso Scale assay kits (Meso Scale Discovery, Gaithersburg, MD). Reagents were allowed to come to room temperature. Meso Scale plates were blocked with 30 µl of human plasma/serum assay diluent with gentle shaking for 60 minutes at room temperature. Plates were washed 3x with wash buffer (PBS, Invitrogen Corporation, with 0.05% Tween-20, Sigma-Aldrich). Calibrators for standard curves were prepared in human plasma/serum assay diluent as a 1/5 serial dilution to achieve final concentrations ranging from 50000 pg/ml to 3.2 pg/ml. Samples and calibrators were added at 20 µl/well, then incubated at room temperature with gentle shaking for 90 minutes. Plates were again washed 3 times with wash buffer. Detection antibody was diluted in human plasma/serum antibody diluent to 1 µg/ml and added to the plate at 20 µl/well. Plates were incubated as before for 60 minutes and washed again. Read Buffer T (4x) was diluted 1:1 with mqH2O to 2 times concentration and 150 µl added to each well. Plates were analyzed on the SECTOR Imager 6000 (Meso Scale Discovery) to generate raw signal values.
(§4) Individual values were compared to positive and negative controls (vehicle treated blood with LPS and vehicle treated blood without LPS, respectively) to generate % inhibition. Triplicate values were averaged for each donor. The values for two donors were averaged (only one donor was used for IL-1β) and graphed using 4-parameter fit curves in the GraFit 5.0.11 application.

A further data set concerns IL-6. The data set is described as follows: Ex vivo LPS-stimulated human whole blood, IL-6 production. Conditions: mean values. The format is cell-based. On the procedure:
as §1, §2, §3, §4

A further data set has as its system TNFα. The data set is described as follows: LPS-induced serum TNFα suppression, 28-day repeat dose mouse model. The format is in vivo, Swiss Webster female mice. On the procedure: The compounds were weighed and suspended in a vehicle of 0.5% methylcellulose/0.025% tween 20 (Sigma-Aldrich, St. Louis, MO). Compound suspensions were homogenized using a Polytron PT-3100 tissue homogenizer to create a very fine suspension and were then sonicated for 10 minutes using a water bath sonicator. Aliquots of each suspension were made for daily dosing at 0.2 ml/dose. Swiss Webster female mice, 10-12 weeks old, 28-29 grams, (Taconic, Germantown, NY) were used in accordance with the guidelines of the Institutional Animal Care and Use Committee and in accordance with NIH guidelines on laboratory animal welfare. Mice were acclimated in the Pfizer animal facility for three to seven days prior to being utilized in a study. […] Each treatment group contained 5-10 mice. To establish a dosing regimen for the studies, a pilot pharmacodynamic time course experiment was conducted to quantify TNFα repression after a single ED80 dose.
Body weights were measured on the first and last day of each experiment. Blood samples were obtained after three weeks of dosing for a steady-state pharmacokinetic (PK) analysis. To assess compound effects on LPS-induced TNFα, all mice received an intraperitoneal injection of LPS (Salmonella typhosa, L-7895; Sigma-Aldrich, St. Louis,) 2.5 hr after the last dose on day 28. Mice were sacrificed 90 minutes after LPS administration. Serum samples were quantified for osteocalcin and TNFα using the multiplex assays (Linco Research, Inc, St. Charles, MO; Luminex 100, Austin, TX). Samples were diluted 1:20 and the assay was run according to manufacturer's instructions. The osteocalcin standard was purchased separately (Biomedical Technologies Inc., Stoughton, MA). Mice were fasted for 4 hours before serum was collected for TNFα, and osteocalcin levels. For each experiment, outliers were detected by calculating the number of standard deviations from the mean of the group. If the value being examined was more than 2.5 standard deviations from the mean, it was excluded from the rest of the calculations.
The individual mouse percent inhibition values were fit to a four-parameter logistic model using the dose mean for each group.
ED50 and ED80 values were obtained for the various endpoints using a four-parameter logistic fit. For compounds which were tested multiple times, ED50 and ED80 values were obtained using four-parameter logistic fits of the combined data from multiple experiments.

A short description of data set [1]: Oral absorption profile in rats.
The nature of data set [2]: Caco-2 cell monolayer A→B permeability assay. Conditions: human.
Excerpt: The Caco-2 cell monolayer is an in vitro tissue culture model of the intestinal epithelium. These cells are of human colonic origin and become polarized, fully differentiated enterocytes in 2-3 weeks. Once differentiated, these cells have tight junctions and express various biochemical processes such as active efflux transporters including P-glycoprotein (P-gp). With this model, it is possible to determine the apparent permeability (Papp) of a compound across the polarized Caco-2 cell monolayer.
An A→B Assay is performed with Caco-2 cell monolayers to determine compound Papp from A chamber to B chamber. This Papp is representative of luminal (gut) to serosal (blood) compound transport across intestinal epithelium that may be seen during intestinal absorption.

The structures appear in SMILES notation.

Turning to `Cc1ncccc1NC(=O)c1ccc2c(c1)CC[C@@H]1C[C@@](O)(C(F)(F)F)CC[C@@]21Cc1ccccc1` [Example 1, (4βS,7R,8αR)-4β-benzyl-7-hydroxy-N-(2-methylpyridin-3-yl)-7-(trifluoromethyl)-4β,5,6,7,8,8α,9,10-octahydrophenanthrene-2-carboxamide], the values for the inhibition at 0.000457247 µM in the data set on IL-1β (0.457247 nM) and with IL-6 (0.457247 nM) were 23.4% and -1.37%, respectively. Also, the inhibition at 0.00137174 µM turned out to be 22.4% in the data set on IL-1β (1.371742 nM) and 3.33% in the data set with IL-6 (1.371742 nM). For the same compound, the inhibition at 0.00411523 µM with IL-1β (4.115226 nM) is 11.2%; in the data set on IL-6 (4.115226 nM), -1.07%. In addition, the inhibition at 0.0123457 µM in the data set with IL-1β (12.34568 nM) is 21.5%; in the data set on IL-6 (12.34568 nM), -0.369%. Moreover, the inhibition at 0.037037 µM in the data set on IL-1β (37.03704 nM) was 38.2%; with IL-6 (37.03704 nM), -0.828%. For the same compound, the inhibition at 0.111111 µM in the data set with IL-1β (111.1111 nM) amounted to 39.7%; in the data set with IL-6 (111.1111 nM), 0.944%. The values for the inhibition at 0.333333 µM in the data set on IL-1β (333.3333 nM) and in the data set on IL-6 (333.3333 nM) were 57.8% and 2.15%, respectively. Further, the figures for the inhibition at 1 µM in the data set with IL-1β (1000 nM) and in the data set on IL-6 (1000 nM) were 53.5% and 8.05%, respectively. Moreover, in the data set with TNFα (Mus musculus, 672 h, oral gavage, 28 days, LPS-induced serum TNFα), the ED50 stood at 0.46 mg/kg. In addition, the ED80 in the data set with TNFα (Mus musculus, 672 h, oral gavage, 28 days, LPS-induced serum TNFα, read-out: TNFα Suppression (ED80 dose)) amounted to 1.82 mg/kg. Moreover, the “Serum TNFα EAUC50 (AUC 0-4 hr)” value with TNFα (mice) worked out at 0.22 µg·h/mL. Also, the “Serum TNFα EAUC80 (AUC 0-4 hr)” value in the data set with TNFα (mice) was found to be 0.33 µg·h/mL. Moreover, the “bioavailability F” value in data set [1] stood at 17%. In data set [1] (oral), the Cmax is 130 ng/mL. In data set [2], the apical-to-basolateral permeability (Papp A→B) is 37.5 ×10⁻⁶ cm/s.
